Assay results: patent publication US20230026277A1, “COMPOSITION FOR PREVENTION, ALLEVIATION, OR TREATMENT OF RESPIRATORY DISEASE” (MICROX CO., LTD., priority 2019, published 2023)

Columns and labels:
Assay type in all cases: in vivo
IL-4, IL-5, and IL-13 = assay: Cytokines in bronchoalveolar lavage fluid by ELISA, asthma-induced mice
Protocol: (§1) Eight-week-old female […] mice (Orient Bio Korea Inc., Korea) having no certain pathogen were accommodated in an aseptic laminar-flow cabinet, and bred by supplying a standard solid feed ad libitum. When the following experiment was performed, the mice were made to correspond to 7- to 8-weeks old, and all laboratory animals were managed according to the protocol approved by the Institutional Animal Care and Use Committee of the Chonbuk National University Medical School.
(§2) Also, on days 21 and 28 from the experimental starting date, the mice were put into a plastic box (Plexiglas (Rohm & Haas, Philadelphia, Pa.) exposure chamber; 24.5 cm×40.5 cm×15.0 cm), and 1.5% ovalbumin was evaporated using an ultrasonic nebulizer (NE-U12; output 0.8 mL/min; Omron, Japan), and injected into the box for 30 minutes so that the mice inhaled the evaporated ovalbumin (secondary challenge).
After the mice were anesthetized, a thin tube was inserted into the airway, and a piston process was repeated using a syringe filled with 0.2 mL of physiological saline to obtain a bronchoalveolar lavage fluid. The bronchoalveolar lavage fluid obtained through this piston process was stored at −70° C. when it was not immediately used in the experiments.
(§3) A level of cytokines in the bronchoalveolar lavage fluid obtained in Experimental Method 2 was measured using an ELISA kit. Here, ELISA kits specifically manufactured for TNF-α, IL-4, IL-5, and IL-13 were used.
Preparation Example 3 (α,δ-NA-L-G) or α,δ N-acetyl-D-glutamine was orally administered to the asthma-induced mice of Experimental Method 1 at a concentration of 100, 200, 400 or 800 μg/kg/day 30 minutes before a secondary airway challenge, and levels of IL-4, IL-5, and IL-13 were measured through the method described above in Experimental Method 4 24 hours after the secondary challenge. The results are shown in A and B of FIG. 4.

asthma-induced mice = assay: Bronchial hypersensitivity reaction (Rrs value, methacholine), asthma-induced mice; settings: oral 200 or 400 μg/kg/day 30 minutes before secondary challenge, 48 hours after, methacholine 5.0 to 50 mg/mL, FIG. 5
Protocol: as §1, §2
45 mg/kg of sodium pentobarbital was intraperitoneally injected into the mice prepared in Experimental Method 1 to anesthetize the mice, and the airways were cut and an 18 gauge needle was inserted into the airways. Thereafter, the needle was connected to a small-sized animal respirator connected to a computer, and the computer system was adjusted to a respiration rate of 150 breaths per minute. Then, methacholine in the form of aerosol was fed at an increasing concentration of 5.0 to 50 mg/mL so that the mice inhaled the methacholine. Then, an airway response was measured, and indicated as an Rrs value.
Preparation Example 3 (α,δ-NA-L-G) or α,δ N-acetyl-D-glutamine was orally administered to the asthma-induced mice of Experimental Method 1 at a concentration of 200 or 400 μg/kg/day 30 minutes before a secondary airway challenge, and the bronchial hypersensitivity reaction was measured 48 hours after the secondary challenge using the method described in Experimental Method 5. The results are shown in A and B of FIG. 5.

NF-κB and TNF-α = assay: NF-κB (Western blot) and TNF-α (ELISA) in asthma-induced mice
Protocol: as §2, §3
A tissue was extracted from each of the mice manufactured in Experimental Method 1, and finely ground to a cell level. Thereafter, the cells were lysed in a cell lysis buffer containing a protease inhibitor to obtain a cell lysate. The cell lysate was centrifuged to obtain protein. Then, an equivalent amount of the proteins obtained from the cells were loaded on an SDS-PAGE gel and electrophoresed. The proteins present in the electrophoresed gel were transferred to a PVDF membrane. The PVDF membrane was washed, and added to a blocking buffer in which 5% skim milk was included in a TBS-T buffer, and incubated at room temperature. Then, the PVDF membrane was incubated at room temperature with an antibody diluted 1:1,000 in a TBS-T buffer containing 3% BSA. Then, the PVDF membrane was washed with a TBS-T buffer, and incubated at room temperature for an hour with a dilute solution containing HRP-bound IgG. The PVDF membrane was washed three times with a TBS-T buffer, and visualized and quantified using an ECL Western blotting detection reagent.
Here, antibodies specific to elastin, caspase-3, collagen, MKP-1, p-cPLA, p-p38, NF-κB(p65), CK2α, GAPDH, or β-actin were used in the Western blot.
(§4) Specifically, the secondary challenge (ovalbumin injection) was performed according to the method described above in Experimental Method 1, and the lungs were extracted after an hour, and then measured according to the method described above in Experimental Method 7. The results are shown in A of FIG. 9. Also, the level of TNF-α corresponding to an NK-κB-dependent cytokine was measured by ELISA according to the method described above in Experimental Method 4. The results are shown in B of FIG. 9. […]
as §4, with “The” for “Specifically, the”, “30 or 60 minutes,” for “an hour,”, “The results are shown in A of FIG. 9.” left out, “4.” for “4. The results are shown in B of FIG. 9.”

[1] = system: elastin, collagen, and caspase-3 proteins; assay: Western blot of elastin, collagen and caspase-3 in chronic obstructive pulmonary disease-induced mice; settings: COPD induced 30 or 60 days; oral 250 μg/kg/day for the last 15 or 30 days; FIGS. 17 and 18
Protocol: as §1
Then, the mixed solution was intranasally administered to the mice of Preparative Example 1 once a day for 30 days or 60 days from the experimental starting date. Here, a group to which only physiological saline was intranasally administered and a group to which a solution obtained by mixing 0.25 μg of LPS with 50 μL of a 10% DMSO solution was administered were used as the controls.
A tissue was extracted from each of the mice manufactured in Experimental Method 1, and finely ground to a cell level. Thereafter, the cells were lysed in a cell lysis buffer containing a protease inhibitor to obtain a cell lysate. The cell lysate was centrifuged to obtain protein. Then, an equivalent amount of the proteins obtained from the cells were loaded on an SDS-PAGE gel and electrophoresed. […] The PVDF membrane was washed three times with a TBS-T buffer, and visualized and quantified using an ECL Western blotting detection reagent. […]

## CC(=O)NC(=O)CC[C@H](NC(C)=O)C(=O)O [Preparation Example 3, 2,5-diacetamido-5-oxopentanoic acid]
IL-4, IL-5, and IL-13; asthma-induced mice, oral 200 μg/kg/day 30 minutes before secondary challenge, measured 24 hours after, FIG. 4A
  levels of IL-4, IL-5, and IL-13: remarkably inhibited
IL-4, IL-5, and IL-13; experiment [5-6], together with siRNA specific to MKP-1, FIG. 13
  expression levels of the cytokines: increased
IL-4, IL-5, and IL-13; experiment [5-6], without MKP-1 siRNA, FIG. 13
  expression levels of the cytokines (IL-4, IL-5, and IL-13): decreased
asthma-induced mice
  Rrs value (bronchial hypersensitivity reaction): remarkably inhibited
NF-κB and TNF-α; 400 μg/kg/day with siRNA specific to MKP-1, FIG. 9
  effect for reducing the levels of NF-κB and TNF-α: not observed
NF-κB and TNF-α; oral daily 400 μg/kg/day, an hour after secondary challenge, FIG. 9A and B
  levels of NF-κB and TNF-α: decreased
[1]
  levels of the elastin, collagen, and caspase-3 proteins: decreased to that of the negative control (saline)
